# Measured values published in patent US12391664B2, “GluN2C/D subunit selective antagonists of the N-methyl-D-aspartate receptor” (Emory University, priority 2018, dated 2025).
# Where two headings read alike, the source gives them in different places. Marks after values point to notes of the source that are not given here.
# How the values were obtained:
# Type in all cases: cell-based
# [1] = target: T1, recombinant rat GluN1/GluN2B (Rattus norvegicus, UniProt P35439+Q00960); test: Two-electrode voltage-clamp recordings in Xenopus laevis oocytes, GluN2B; conditions: oocytes, 100 μM glutamate and 30 μM glycine
# T1 construct: expressed in transfected cells; host or cells: Xenopus laevis oocytes injected with cRNA (GluN1:GluN2 ratio 1:2)
# Description: (§1) All target compounds were evaluated for activity by the Traynelis laboratory at Emory University using two-electrode voltage-clamp recordings performed in Xenopus laevis oocytes expressing recombinant GluN2A-D subunits (Table 1). […] Two ester compounds 997-65 and 997-66 also performed no inhibition at GluN2A to GluN2D receptors. […] Consequently, for the compounds that Acker et al. already published, it was necessary to increase the concentration to 100 μM when collecting data for a concentration effect curve. […] Therefore, under this condition, we can only conclude that compound 997-67 remained potent at GluN2C/D-containing receptors, but its selectivity over GluN2A- and GluN2B-containing receptors could not be compared to 997-57. […] Finally, replacing the carboxylic acid to the bio-isostere amide yielded compounds 997-96 and 997-115, which dropped the potency 2- to 4-fold in comparison to their corresponding acids 997-74 and 997-114.
# (§2) Two-electrode voltage-clamp recordings were performed in Xenopus laevis oocytes that were injected with mRNA to express recombinant rat GluN1/GluN2A, GluN1/GluN2B, GluN1/GluN2C, and GluN1/GluN2D. The recordings using unfertilized oocytes from Xenopus laevis were permitted by Emory University Institutional Animal Care and Use Committee (IACUC). An automatic injector (Nanoject II, Drummond Scientific) was used for cRNA injection using the pipettes filled with mineral oil. The cRNA that transcribed in vitro via the mMessage Machine kit (Ambion) was diluted with nuclease-free water, and then injected at GluN1/GluN2 with a ratio of 1:2. The oocytes were stored in Barth's solution that contained 88 mM NaCl, 5.0 mM Tris-HCl, 2.4 mM NaHCO3, 1.0 mM KCl, 0.84 mM MgSO4, 0.41 mM CaCl2, 0.33 mM Ca(NO3)2, 0.1 mg/ml gentamycin sulfate, 1.0 U/ml penicillin, and 1 μg/ml streptomycin at a pH of 7.4 and temperatures of 15-17° C. for two to five days before the two-electrode voltage-clamp recordings. When recording, the oocytes were placed in a perfusion chamber and continually washed with the recording solution comprised of 90 mM NaCl, 1.0 mM KCl, 0.50 mM BaCl2, 0.005 mM EDTA, and 10 mM HEPES at a pH of 7.4 and a temperature of 23° C. Glass electrodes with a tip resistance of 0.5 to 2.5 MΩ were obtained from thin-walled glass capillary tubes. Voltage electrodes and current electrodes were filled with 0.3 M and 3.0 M KCl, respectively. The recordings were executed with the oocytes membrane potential holding at −40 m V by an OC-725 amplifier (Warner Instrument Co). All compounds were dissolved in dimethyl sulfoxide (DMSO) as 20 mM stock solutions and future diluted to reach the desired concentration (0.05-0.5% (vol/vol) DMSO) in recording solution comprised of 30 μM glycine and 100 μM glutamate. Each compound was recorded 3-7 times in the least 4 oocytes from at least 2 different Xenopus laevis.
# (§3) To evaluate the inhibition of compounds, the concentration-response curve was fitted with the average two-electrode voltage-clamp recording results with the equation
# (§4) [formula] • where IC50 is the concentration of compounds that inhibit half maximal of the current response and N is the Hill slope.
# [2] = target: T2, recombinant rat GluN1/GluN2B (Rattus norvegicus, UniProt Q00960); test: as above; conditions: 3 μM compound with 100 μM glutamate and 30 μM glycine, control set as 1
# T2 construct: expressed in transfected cells; host or cells: Xenopus laevis oocytes injected with cRNA (GluN1:GluN2 ratio 1:2)
# Description: as §1, §2, §3, §4
# [3] = target: T3, recombinant rat GluN1/GluN2A (Rattus norvegicus, UniProt P35439+Q00959); test: Two-electrode voltage-clamp recordings in Xenopus laevis oocytes, GluN2A; conditions: oocytes, 100 μM glutamate and 30 μM glycine
# T3 construct: expressed in transfected cells; host or cells: Xenopus laevis oocytes injected with cRNA (GluN1:GluN2 ratio 1:2)
# Description: as §1, §2, §3, §4
# [4] = target: T4, recombinant rat GluN1/GluN2A (Rattus norvegicus, UniProt Q00959); test: as above; conditions: 3 μM compound with 100 μM glutamate and 30 μM glycine, control set as 1
# T4 construct: expressed in transfected cells; host or cells: Xenopus laevis oocytes injected with cRNA (GluN1:GluN2 ratio 1:2)
# Description: as §1, §2, §3, §4
# [5] = target: T5, recombinant rat GluN1/GluN2C (Rattus norvegicus, UniProt Q00961); test: Two-electrode voltage-clamp recordings in Xenopus laevis oocytes, GluN2C; conditions: 3 μM compound with 100 μM glutamate and 30 μM glycine, control set as 1
# T5 construct: expressed in transfected cells; host or cells: Xenopus laevis oocytes injected with cRNA (GluN1:GluN2 ratio 1:2)
# Description: as §1, §2, §3, §4
# [6] = target: T6, recombinant rat GluN1/GluN2C (Rattus norvegicus, UniProt P35439+Q00961); test: as above
# T6 construct: expressed in transfected cells; host or cells: Xenopus laevis oocytes injected with cRNA (GluN1:GluN2 ratio 1:2)
# Description: as §1, §2, §3, §4
# [7] = target: T7, recombinant rat GluN1/GluN2D (Rattus norvegicus, UniProt Q62645); test: Two-electrode voltage-clamp recordings in Xenopus laevis oocytes, GluN2D; conditions: for 2A IC50 / 2D IC50 / 2B IC50 / 2D IC50: ratio of IC50 values
# T7 construct: expressed in transfected cells; host or cells: Xenopus laevis oocytes injected with cRNA (GluN1:GluN2 ratio 1:2)
# Description: as §1, §2, §3, §4
# [8] = target: T8, recombinant rat GluN1/GluN2D (Rattus norvegicus, UniProt P35439+Q62645); test: as above
# T8 construct: expressed in transfected cells; host or cells: Xenopus laevis oocytes injected with cRNA (GluN1:GluN2 ratio 1:2)
# Description: as §1, §2, §3, §4
# [9] = mean IC50 with bottom and top 95% confidence interval, read-out: Avg. GluN2C IC50 (95% CI)
# [10] = oocytes, 100 μM glutamate and 30 μM glycine, read-out: GluN2C IC50
# [11] = mean IC50 with bottom and top 95% confidence interval, read-out: Avg. GluN2D IC50 (95% CI)
# [12] = oocytes, 100 μM glutamate and 30 μM glycine, read-out: GluN2D IC50
# [13] = read-out: IC50 at GluN2D-containing receptors
# T7 sequence (Q62645 28-1323, other chains not shown): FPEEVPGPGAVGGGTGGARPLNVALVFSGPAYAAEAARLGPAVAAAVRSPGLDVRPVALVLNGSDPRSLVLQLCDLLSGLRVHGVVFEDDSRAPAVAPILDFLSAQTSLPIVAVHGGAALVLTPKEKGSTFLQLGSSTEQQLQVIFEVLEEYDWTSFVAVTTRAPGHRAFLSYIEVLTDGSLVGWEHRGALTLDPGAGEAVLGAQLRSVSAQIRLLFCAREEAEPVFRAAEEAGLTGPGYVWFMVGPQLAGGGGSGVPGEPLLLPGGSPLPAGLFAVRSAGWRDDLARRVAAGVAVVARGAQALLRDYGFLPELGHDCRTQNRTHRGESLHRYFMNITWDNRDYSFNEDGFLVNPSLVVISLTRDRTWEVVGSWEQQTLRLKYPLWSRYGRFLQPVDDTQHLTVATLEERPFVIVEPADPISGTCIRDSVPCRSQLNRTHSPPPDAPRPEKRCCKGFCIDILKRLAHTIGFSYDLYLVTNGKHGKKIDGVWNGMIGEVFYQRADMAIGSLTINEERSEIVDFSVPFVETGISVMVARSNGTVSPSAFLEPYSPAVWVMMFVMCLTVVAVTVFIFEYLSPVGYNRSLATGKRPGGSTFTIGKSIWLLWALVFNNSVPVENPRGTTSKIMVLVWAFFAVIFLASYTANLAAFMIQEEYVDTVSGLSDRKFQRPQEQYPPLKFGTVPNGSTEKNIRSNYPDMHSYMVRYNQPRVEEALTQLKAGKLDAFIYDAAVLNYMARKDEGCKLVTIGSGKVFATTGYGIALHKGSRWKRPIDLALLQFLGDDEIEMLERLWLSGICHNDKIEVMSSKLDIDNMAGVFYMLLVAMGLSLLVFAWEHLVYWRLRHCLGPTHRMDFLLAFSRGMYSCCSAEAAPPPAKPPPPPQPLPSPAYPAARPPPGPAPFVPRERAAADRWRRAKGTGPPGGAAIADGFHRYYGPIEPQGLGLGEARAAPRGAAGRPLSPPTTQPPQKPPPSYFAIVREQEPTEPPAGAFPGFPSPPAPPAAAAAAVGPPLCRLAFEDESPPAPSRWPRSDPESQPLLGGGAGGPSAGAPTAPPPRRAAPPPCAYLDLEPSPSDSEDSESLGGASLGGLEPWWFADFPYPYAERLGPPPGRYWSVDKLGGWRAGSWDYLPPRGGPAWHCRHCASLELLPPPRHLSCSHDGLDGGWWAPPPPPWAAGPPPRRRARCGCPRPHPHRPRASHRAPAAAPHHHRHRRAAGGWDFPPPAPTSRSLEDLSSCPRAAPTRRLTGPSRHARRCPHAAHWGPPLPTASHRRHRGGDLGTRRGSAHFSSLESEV
# T8 sequence (Q62645 28-1323, other chains not shown): as above
# T6 sequence (Q00961 20-1237, other chains not shown): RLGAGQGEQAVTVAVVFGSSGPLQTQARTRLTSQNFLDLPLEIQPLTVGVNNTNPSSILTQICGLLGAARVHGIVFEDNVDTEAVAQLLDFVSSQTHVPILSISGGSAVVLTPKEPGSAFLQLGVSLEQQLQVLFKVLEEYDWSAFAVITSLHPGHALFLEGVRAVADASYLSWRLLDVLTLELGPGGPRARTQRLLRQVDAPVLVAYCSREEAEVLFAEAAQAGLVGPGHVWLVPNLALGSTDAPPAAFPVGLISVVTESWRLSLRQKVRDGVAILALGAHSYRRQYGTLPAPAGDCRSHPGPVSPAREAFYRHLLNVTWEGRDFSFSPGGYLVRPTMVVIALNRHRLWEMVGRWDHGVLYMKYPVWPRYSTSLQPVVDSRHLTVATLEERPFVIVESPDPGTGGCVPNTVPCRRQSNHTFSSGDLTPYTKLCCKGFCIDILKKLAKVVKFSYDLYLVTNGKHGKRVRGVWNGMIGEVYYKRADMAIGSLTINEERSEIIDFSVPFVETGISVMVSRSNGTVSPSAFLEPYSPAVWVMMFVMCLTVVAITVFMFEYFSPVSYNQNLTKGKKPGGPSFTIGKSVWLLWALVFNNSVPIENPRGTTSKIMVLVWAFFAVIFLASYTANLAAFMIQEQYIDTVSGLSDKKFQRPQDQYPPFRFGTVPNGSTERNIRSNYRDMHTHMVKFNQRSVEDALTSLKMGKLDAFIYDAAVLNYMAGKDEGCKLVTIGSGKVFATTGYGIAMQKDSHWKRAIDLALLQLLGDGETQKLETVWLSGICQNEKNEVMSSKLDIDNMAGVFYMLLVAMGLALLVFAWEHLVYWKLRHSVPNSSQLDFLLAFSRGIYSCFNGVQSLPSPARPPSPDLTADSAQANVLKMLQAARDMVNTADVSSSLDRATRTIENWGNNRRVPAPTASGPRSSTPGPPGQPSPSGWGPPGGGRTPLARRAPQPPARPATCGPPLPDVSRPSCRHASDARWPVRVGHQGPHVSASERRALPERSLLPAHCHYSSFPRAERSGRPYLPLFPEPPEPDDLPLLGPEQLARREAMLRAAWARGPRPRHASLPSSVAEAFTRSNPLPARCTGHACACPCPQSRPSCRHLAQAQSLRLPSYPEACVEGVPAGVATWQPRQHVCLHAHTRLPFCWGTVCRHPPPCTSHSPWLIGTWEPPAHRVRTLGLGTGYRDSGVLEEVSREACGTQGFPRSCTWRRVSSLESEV
# T1 sequence (Q00960 27-1482, other chains not shown): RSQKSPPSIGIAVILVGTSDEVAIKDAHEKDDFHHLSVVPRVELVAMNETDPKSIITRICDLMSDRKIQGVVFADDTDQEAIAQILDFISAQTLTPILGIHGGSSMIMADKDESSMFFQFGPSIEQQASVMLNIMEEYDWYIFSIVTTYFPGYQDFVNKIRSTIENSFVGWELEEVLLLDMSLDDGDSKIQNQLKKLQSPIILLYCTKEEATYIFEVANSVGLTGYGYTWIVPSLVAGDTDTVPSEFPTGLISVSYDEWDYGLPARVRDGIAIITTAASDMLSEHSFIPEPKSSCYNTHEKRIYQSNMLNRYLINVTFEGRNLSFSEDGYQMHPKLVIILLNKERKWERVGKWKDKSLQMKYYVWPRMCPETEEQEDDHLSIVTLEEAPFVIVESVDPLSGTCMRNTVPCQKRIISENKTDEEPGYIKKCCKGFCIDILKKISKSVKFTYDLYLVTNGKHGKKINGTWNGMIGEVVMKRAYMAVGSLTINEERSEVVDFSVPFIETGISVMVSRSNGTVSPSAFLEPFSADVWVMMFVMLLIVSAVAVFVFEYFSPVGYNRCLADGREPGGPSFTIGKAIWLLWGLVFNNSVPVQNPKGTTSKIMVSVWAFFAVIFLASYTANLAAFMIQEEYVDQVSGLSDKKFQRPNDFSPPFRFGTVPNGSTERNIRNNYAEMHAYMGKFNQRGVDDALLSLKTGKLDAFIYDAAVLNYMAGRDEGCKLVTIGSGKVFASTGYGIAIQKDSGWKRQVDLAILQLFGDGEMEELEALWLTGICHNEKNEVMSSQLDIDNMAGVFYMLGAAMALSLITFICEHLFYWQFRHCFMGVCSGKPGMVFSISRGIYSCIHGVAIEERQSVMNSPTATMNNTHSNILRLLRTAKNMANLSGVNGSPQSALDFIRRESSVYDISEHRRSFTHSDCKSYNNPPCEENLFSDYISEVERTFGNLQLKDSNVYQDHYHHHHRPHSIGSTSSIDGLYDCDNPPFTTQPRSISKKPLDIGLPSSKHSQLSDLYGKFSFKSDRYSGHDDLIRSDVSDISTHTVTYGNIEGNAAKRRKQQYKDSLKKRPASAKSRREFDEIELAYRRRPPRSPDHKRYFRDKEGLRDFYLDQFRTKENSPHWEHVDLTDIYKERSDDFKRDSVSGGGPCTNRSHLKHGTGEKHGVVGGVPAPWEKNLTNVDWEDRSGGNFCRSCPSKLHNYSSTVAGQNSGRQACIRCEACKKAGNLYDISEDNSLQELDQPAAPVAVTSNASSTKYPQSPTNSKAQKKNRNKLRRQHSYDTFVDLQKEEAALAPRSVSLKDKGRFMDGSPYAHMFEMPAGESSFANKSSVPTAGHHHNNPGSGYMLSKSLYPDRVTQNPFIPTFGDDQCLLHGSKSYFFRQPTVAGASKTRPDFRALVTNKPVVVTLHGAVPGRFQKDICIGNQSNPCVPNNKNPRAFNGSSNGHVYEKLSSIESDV
# T5 sequence (Q00961 20-1237, other chains not shown): as the sequence (Q00961 20-1237, other chains not shown) above
SMILES,IC50 [1] [µM],IC50 [3] [µM],"IC50 [6, 10] [µM]","IC50 [8, 12] [µM]",2B IC50 / 2D IC50 [7],other results
"O=C(O)CCC(=O)N1N=C(c2c(-c3ccc(Cl)cc3)c3ccccc3[nH]c2=S)CC1c1ccc(Cl)cc1 (stereo not shown) [997-97, 4-(5-(4-chlorophenyl)-3-(4-(4-chlorophenyl)-2-thioxo-1,2-dihydroquinolin-3-yl)-4,5-dihydro-1H-pyrazol-1-yl)-4-oxobutanoic acid]",30,16,0.48,0.35,86,2A IC50 / 2D IC50 [7]: 46
"O=C(O)CC(F)(F)C(=O)N1N=C(c2c(-c3ccc(Cl)cc3)c3ccccc3[nH]c2=O)CC1c1ccc(F)cc1 (stereo not shown) [997-104, 4-(3-(4-(4-chlorophenyl)-2-oxo-1,2-dihydroquinolin-3-yl)-5-(4-fluorophenyl)-4,5-dihydro-1H-pyrazol-1-yl)-3,3-difluoro-4-oxobutanoic acid]",30,20,1.6,0.81,37,fold decrease of potency at GluN2D in comparison to 997-74 ([7]; comparator 997-74): 16 fold
"O=C(O)CCC(=O)N1N=C(c2c(-c3ccc(Cl)s3)c3ccccc3[nH]c2=O)CC1c1ccc(Cl)cc1 (stereo not shown) [997-108, 4-(5-(4-chlorophenyl)-3-(4-(5-chlorothiophen-2-yl)-2-oxo-1,2-dihydroquinolin-3-yl)-4,5-dihydro-1H-pyrazol-1-yl)-4-oxobutanoic acid]",23,13,0.67,0.4,,
"O=C(O)CCC(=O)N1N=C(c2c(-c3ccc(Cl)cc3)c3ccccc3[nH]c2=O)CC1c1ccc(Cl)s1 (stereo not shown) [997-111, 4-(3-(4-(4-chlorophenyl)-2-oxo-1,2-dihydroquinolin-3-yl)-5-(5-chlorothiophen-2-yl)-4,5-dihydro-1H-pyrazol-1-yl)-4-oxobutanoic acid]",34,21,1.3,0.8,43,
"O=C(O)CCC(=O)N1N=C(c2c(-c3ccc(Cl)cc3)c3ccccc3[nH]c2=O)CC1c1ccc(C(F)(F)F)cc1 (stereo not shown) [997-112, 4-(3-(4-(4-chlorophenyl)-2-oxo-1,2-dihydroquinolin-3-yl)-5-(4-(trifluoromethyl)phenyl)-4,5-dihydro-1H-pyrazol-1-yl)-4-oxobutanoic acid]",20,13,0.35,0.2,100,
"O=C(O)CC(F)(F)C(=O)N1N=C(c2ccccc2-c2ccc(Cl)cc2)CC1c1ccc(Cl)s1 (stereo not shown) [997-118, 4-(3-(4′-chloro-[1,1′-biphenyl]-2-yl)-5-(5-chlorothiophen-2-yl)-4,5-dihydro-1H-pyrazol-1-yl)-3,3-difluoro-4-oxobutanoic acid]",12,9.01,3.69,3.74,3,

# The next compounds have a lower IC50 [1] than those just listed; values first:
IC50 [1] [µM],IC50 [3] [µM],"IC50 [6, 10] [µM]","IC50 [8, 12] [µM]",2B IC50 / 2D IC50 [7],SMILES,other results
1.8,4.1,2.1,< 1,,"Cc1ccc2[nH]c(=O)c(C3=NN(C(=O)C(F)(F)CC(=O)O)C(c4ccc(Cl)cc4)C3)c(-c3ccc(Cl)cc3)c2c1 (single isomer, unassigned; (+)) [(+)-997-90]","I3 μM/Icontrol (mean ± SEM, %) GluN2B ([2]; listed as (+)-90): 53 ± 3.6%; I3 μM/Icontrol (mean ± SEM, %) GluN2A ([4]; listed as (+)-90): 72 ± 2.9%; I3 μM/Icontrol (mean ± SEM, %) GluN2C ([5]; listed as (+)-90): 36 ± 3.0%; IC50 [6, 9]: 2.1 µM; I/Icontrol (mean ± SEM, %) GluN2D, data with ** ([7]; 1 μM compound with 100 μM glutamate and 30 μM glycine, control set as 1): 31 ± 9.8** %; IC50 [8, 11]: 0.66 µM"
1.9,1.9,0.2,0.13,,"Cc1ccc2[nH]c(=O)c(C3=NN(C(=O)C(F)(F)CC(=O)O)C(c4ccc(Cl)cc4)C3)c(-c3ccc(Cl)cc3)c2c1 (single isomer, unassigned; (-)) [(−)-997-90]","I3 μM/Icontrol (mean ± SEM, %) GluN2B ([2]; listed as (−)-90): 34 ± 5.0%; I3 μM/Icontrol (mean ± SEM, %) GluN2A ([4]; listed as (−)-90): 33 ± 4.5%; I3 μM/Icontrol (mean ± SEM, %) GluN2C ([5]; listed as (−)-90): 7.0 ± 2.2%; IC50 [6, 9]: 0.21 µM; I3 μM/Icontrol (mean ± SEM, %) GluN2D ([7]; 3 μM compound with 100 μM glutamate and 30 μM glycine, control set as 1): 3.4 ± 1.2%; IC50 [8, 11]: 0.13 µM"
11,3,0.07,,183,"O=C(O)/C=C(/F)C(=O)N1N=C(c2c(-c3ccc(Cl)cc3)c3ccccc3[nH]c2=O)CC1c1ccc(Cl)cc1 (stereo not shown) [997-101, (E)-4-(5-(4-chlorophenyl)-3-(4-(4-chlorophenyl)-2-oxo-1,2-dihydroquinolin-3-yl)-4,5-dihydro-1H-pyrazol-1-yl)-3-fluoro-4-oxobut-2-enoic acid]","selectivity at GluN2D- over GluN2A-containing receptor [7]: 50 fold; 2A IC50 / 2D IC50 [7]: 50; IC50 [8, 13]: 0.06 µM"
4,2.6,0.28,,,"O=C(O)CC(F)(F)C(=O)N1N=C(c2c(-c3ccc(Cl)s3)c3ccccc3[nH]c2=O)CC1c1ccc(Cl)cc1 (stereo not shown) [997-109, 4-(5-(4-chlorophenyl)-3-(4-(5-chlorothiophen-2-yl)-2-oxo-1,2-dihydroquinolin-3-yl)-4,5-dihydro-1H-pyrazol-1-yl)-3,3-difluoro-4-oxobutanoic acid]","IC50 [8, 13]: 0.1 µM"
2.9,2.3,0.17,0.08,36,"O=C(O)CC(F)(F)C(=O)N1N=C(c2c(-c3ccc(Cl)cc3)c3ccccc3[nH]c2=O)CC1c1ccc(C(F)(F)F)cc1 (stereo not shown) [997-113, 4-(3-(4-(4-chlorophenyl)-2-oxo-1,2-dihydroquinolin-3-yl)-5-(4-(trifluoromethyl)phenyl)-4,5-dihydro-1H-pyrazol-1-yl)-3,3-difluoro-4-oxobutanoic acid]",
8.15,5.67,0.338,,48,"O=C(CC(F)(F)C(=O)O)N1N=C(c2c(-c3ccc(Cl)cc3)c3ccccc3[nH]c2=O)CC1c1ccc(Cl)cc1 (stereo not shown) [997-114, 4-(5-(4-chlorophenyl)-3-(4-(4-chlorophenyl)-2-oxo-1,2-dihydroquinolin-3-yl)-4,5-dihydro-1H-pyrazol-1-yl)-2,2-difluoro-4-oxobutanoic acid]","2A IC50 / 2D IC50 [7]: 33; IC50 [8, 13]: 0.17 µM"
8.79,17.2,3.44,2.87,3,"O=C(O)CC(F)(F)C(=O)N1N=C(c2ccccc2-c2ccc(Cl)cc2)CC1c1ccc(OC(F)(F)F)cc1 (stereo not shown) [997-117, 4-(3-(4′-chloro-[1,1′-biphenyl]-2-yl)-5-(4-(trifluoromethoxy)phenyl)-4,5-dihydro-1H-pyrazol-1-yl)-3,3-difluoro-4-oxobutanoic acid]",
8.8,11,5.23,3.36,,"O=C(O)CC(F)(F)C(=O)N1N=C(c2ccccc2-c2ccc(F)c(Cl)c2)CC1c1ccc(Cl)cc1 (stereo not shown) [997-120, 4-(3-(3′-chloro-4′-fluoro-[1,1′-biphenyl]-2-yl)-5-(4-chlorophenyl)-4,5-dihydro-1H-pyrazol-1-yl)-3,3-difluoro-4-oxobutanoic acid]",
